In publication PMC7699649 (Communications Biology, 2020):
Non-standard residues stand in square brackets, D forms with d. Residues, ends and D or L forms follow the SMILES beside them.

Assay: Maximum tolerated dose (MTD) study, i.v.
Type: in vivo
Conditions: ICR mice
Text: SI Figures: Why are there 6 different Figure 3s with separate legends? Within the 4th - 6th Figure 3’s, what are the 4 different graphs for each of A, B, and C? […] Figure 16, 19 and 24 […]
have unreadable components due to overlap of text.
Each panel that constitutes “Secondary structure analysis of pleurocidin peptides from MD simulations” and, as such, is the same data but analysed in different ways. For this reason, we considered it appropriate to consider these all as one figure. However, to provide further clarity we have renumbered the supplementary figures and added further detail to the legends. The DISICL analysis is presented with a separate panel for each peptide. This has been clarified in the figure legend.
The overlap in the metabolite annotation in Volcano plots is a challenge for those metabolites that do not change much or where there is low significance as they all cluster in the same place. Since they are below the significance threshold, we have elected to remove these labels. […]
unethical to perform dose-ranging experiments to confirm this. Instead our experimental design was […]
As mentioned above however, we […]
systemic delivery of AMPs will never be possible due to insufficient therapeutic index. There is a marginal therapeutic index provided based on mammalian cell toxicity (up to 12-fold), but many existing in vitro studies of AMPs have shown greater selectivity. […]

CC(C)C[C@@H](NC(=O)[C@@H](Cc1ccc(O)cc1)NC(=O)[C@@H](Cc1c[nH]cn1)NC(=O)[C@H](NC(=O)[C@@H](CC(C)C)NC(=O)[C@@H](C)NC(=O)[C@@H](C)NC(=O)[C@@H](CCCNC(=N)N)NC(=O)CNC(=O)[C@H](NC(=O)[C@@H](Cc1c[nH]cn1)NC(=O)[C@@H](CCCNC(=N)N)NC(=O)CNC(=O)[C@H](NC(=O)[C@@H](Cc1c[nH]cn1)NC(=O)[C@@H](C)NC(=O)[C@@H](C)NC(=O)[C@@H](CCCNC(=N)N)NC(=O)[C@@H](CCCNC(=N)N)NC(=O)[C@@H](Cc1ccccc1)NC(=O)[C@@H](Cc1ccccc1)NC(=O)[C@@H](CO)NC(=O)CNC(=O)[C@@H](Cc1c[nH]c2ccccc12)NC(=O)CN)C(C)C)C(C)C)[C@H](C)O)C(N)=O [D-pleurocidin-KR] (H-G[dW]G[dS][dF][dF][dR][dR][dA][dA][dH][dV]G[dR][dH][dV]G[dR][dA][dA][dL][dT][dH][dY][dL]-NH2; N-terminus assumed)
dose tolerated when administered i.v.: 15 mg/kg/24 h
